The test deals with mRNA for UGCG in the mouse preputial gland. To be noted: gonadectomized male mice, medium-term treatment, effect visible at 96 hours.

The record followed here is patent US20100028878A1, “Modulators of UDP-glucose ceramide glucosyltransferase for treating acne or hyperkeratinization” (GALDERMA RESEARCH & DEVELOPMENT, priority 2006, published 2010).

Procedure: The expression of the genes was analyzed on an Affymetrix station (microfluidic model; hybridization oven; scanner; computer) following the protocols provided by the company. Briefly, the total RNA isolated from the tissues is transcribed to cDNA. From the double-stranded cDNA, a cRNA labeled with biotin is synthesized using T7 polymerase and a precursor NTP conjugated to biotin. The cRNAs are then fragmented to small sized fragments. All the molecular biology steps are checked using the Agilent “Lab on a chip” system in order to confirm the good efficiencies of the enzymatic reactions. The Affymetrix chip is hybridized with the biotinylated cRNA, rinsed and then fluorescence labeled using a fluorophore conjugated to streptavidin. After washings, the chip is scanned and the results are calculated using the MAS5 software provided by Affymetrix. An expression value is obtained for each gene as well as the indication of the significance of the value obtained.
B. Male mice were gonadectomized and treated with the vehicle or DHT. The preputial glands were removed for a period ranging up to 4 days (androgenic treatment alone—observation of a short-term kinetics). The RNA was isolated and the expression of the genes was analyzed by the Affymetrix technique.

Take `C[C@]12CCC(=O)C[C@@H]1CC[C@@H]1[C@@H]2CC[C@]2(C)[C@@H](O)CC[C@@H]12` [DHT, Dihydrotestosterone]: the “mRNA for UGCG in the mouse preputial gland” value is “reduced”.
